Eleven compounds from US5010084A, “Imidazoquinolone derivatives” (Kyowa Hakko Kogyo Co., Ltd., priority 1989, dated 1991) can be followed below.

Molecules are shown by their SMILES. Counter-ions that a name gives are not always drawn.

For series [1], the system named is zig-zag strips of the tracheae (passively sensitized guinea pigs). As to the kind of experiment: Effects on passive Schultz-Dale reaction (broncho-dilatory effects). It is filed as cell-based, guinea pig (male Hartley). Conditions: Cavia porcellus; guinea pig trachea contracted with antigen EWA 1 μg/ml, 37° C., cumulative concentration-relaxation curves; read-out: Passive Schultz-Dale reaction (IC50), concentration of 50% relaxation rate. The procedure:
Male Hartley guinea pigs weighing 350 to 500 g were passively sensitized by intraperitoneal injection of rabbit anti-egg white albumin (EWA) serum prepared by the method of Eda et al. [Folia pharmacol., Japon 66, 237, (1970)]. After 24 hours, the guinea pigs were stunned and exsanguinated, and then tracheae were removed. The zig-zag strips of the tracheae were prepared by the method of Emmerson and Mackay [J. Pharm. Pharmacol., 31, 798, (1979)]. The strips were suspended in Krebs-Henseleit solution at 37° C. under aeration of a mixed gas of 95% oxygen and 5% carbon dioxide, and equilibrated for one hour. Antigen (EWA) was then introduced in the solution (final concentration; 1 μg/ml), and the contraction was measured by […] (TD-112s, made by Nihon Kohden K.K., Japan) and recorded on a recorder (Type 3066, made by Yokogawa-Hokushin Denki, K.K. Japan). After the contraction curves reached plateau, the compounds were successively added in order to get cumulative concentration-relaxation curves.

The next series can be described thus: Acute toxicity. To be noted: mouse, in vivo; male dd-mice, po, mortality for seven days. The procedure:
The compounds were orally administrated (po: 300 mg/kg) to male dd-mice weighing 20 to 25 g. LD50 was determined by observing the mortality for seven days after the administration.

For series [2], the system named is passively sensitized guinea pigs, experimental asthma. As to the kind of experiment: Effects on experimental asthma. It is filed as in vivo, guinea pig (male Hartley). Conditions: guinea pig, 50 mg/kg orally, 1 hour before aerosol of 1.5% EWA; diphenhydramine and propranolol pretreated; control 254. The protocol: Guinea pigs were passively sensitized as follows. Male Hartley guinea pigs weighing 350 to 500g were intraperitoneally injected with 1 ml of rabbit EWA serum prepared by the method of Eda et al. [Folia pharmacol., Japon, 66, 237 (1970)]. The animals were treated with intraperitoneal injection of diphenhydramine (20 mg/kg) and propranolol (5 mg/kg), 30 minutes before administration of test compounds. 17 hours after the sensitization, the test compounds (50 mg/kg) were orally administrated to sensitized animals. After one hour from the administration of the test compounds, the guinea pigs were placed in plastic observation box and were exposed to an aerosal antigen of 1.5% EWA. The time until the onset of respiratory […] symptom [collapse time (second)] was measured as a result of experimental asthma.

Consider `CCCCn1c(=O)c2c(ncn2CC(=O)O)c2ccccc21` [Compound 8, 5-n-Butyl-3-carboxymethyl-3H,5H-imidazo[4,5,-c]quinolin-4-one], for which, in series [1], the IC50 was determined as 6.7 µM.

As for `CCCCn1cnc2c3ccccc3n(CCCC)c(=O)c21` [Compound 5, 3,5-Di-n-Butyl-3H,5H-imidazo [4,5,-c] quinolin-4-one hydrochloride], in the series “Acute toxicity”, the 50% lethal dose (LD50) at 168 h was above 300 mg/kg.

Take `Cn1c(=O)c2[nH]cnc2n(C)c1=O` [Theophylline, reference compound]: the “Experimental asthma, collapse time (time until the onset of respiratory distresslike symptom)” value (from here on “Experimental asthma, collapse time”) in series [2] worked out at 414 s. Turning to `CCCCn1c(=O)c2c(ncn2CC(=O)OC(C)(C)C)c2ccccc21` [Compound 7, 3-tert-Butoxycarbonylmethyl-5-n-butyl-3H,5H-imidazo[4,5-c]quinolin-4-one], in series [1], the IC50 turned out to be 0.47 µM. `CCCCn1c(=O)c2c(ncn2C)c2ccccc21` [Compound 1, 5-n-Butyl-3-methyl-3H,5H-imidazo[4,5,-c]quinolin-4-one]: in series [1], the IC50 was 6.7 µM. Besides, in series [2], the “Experimental asthma, collapse time” value came out at 429 s. For the same compound, the LD50 at 168 h in the series “Acute toxicity” is above 200 mg/kg. For `CCCCn1c(=O)c2c(ncn2CC)c2ccccc21.Cl` [Compound 2, 5-n-Butyl-3-ethyl-3H,5H-imidazo[4,5-c]quinolin-4-one hydrochloride], the IC50 in series [1] is 2 µM. The compound further displayed a median lethal dose (LD50) at 168 h in the series “Acute toxicity” above 300 mg/kg.

Regarding `CCn1c(=O)c2c(ncn2C)c2ccccc21` [Compound 9, 5-Ethyl-3-methyl-3H,5H-imidazo[4,5,-c]quinolin-4-one], the IC50 in series [1] was determined as 1.3 µM. As to `Cn1c(=O)c2[nH]cnc2n(C)c1=O` [Aminophylline, reference compound], the IC50 in series [1] was 23 µM.

As for `CCCCn1c(=O)c2c(ncn2CCC)c2ccccc21.Cl` [Compound 3, 5-n-Butyl-3-n-propyl-3H,5H-imidazo[4,5-c]quinolin-4-one hydrochloride], the IC50 in series [1] amounted to 6.8 µM. In series [2], the “Experimental asthma, collapse time” value amounted to 348 s. Also, the 50% lethal dose (LD50) at 168 h in the series “Acute toxicity” was above 300 mg/kg.

On to `CCCCn1c(=O)c2c(ncn2C(C)C)c2ccccc21` [Compound 4, 5-n-Butyl-3-isopropyl-3H,5H-imidazo[4,5,-c]quinolin-4-one hydrochloride], for which the IC50 in series [1] worked out at 3.7 µM. The compound also yielded a median lethal dose (LD50) at 168 h in the series “Acute toxicity” above 300 mg/kg.

For `CCCCn1c(=O)c2c(ncn2CC(C)=O)c2ccccc21` [Compound 6, 3-Acetonyl-5-n-butyl-3H,5H-imidazo[4,5,-c]quinolin-4-one], the IC50 in series [1] worked out at 7.9 µM. Also, the “Experimental asthma, collapse time” value in series [2] is 530 s. This compound came in with an LD50 at 168 h in the series “Acute toxicity” above 300 mg/kg.

What is called LD50 is the dose expected to kill half of the subjects tested.
